From patent US6043072A, “Nucleic acids encoding Taxus geranylgeranyl diphosphate synthase, and methods of use” (Washington State University Research Foundation, priority 1998, dated 2000)

Assays:
[1] = molecular target: T. canadensis GGPP synthase (Taxus canadensis, UniProt Q9ZPM3); test: Kinetic evaluation of recombinant GGPP synthase (standard prenyltransferase assay, double reciprocal plots); assay type: biochemical; details: for relative velocities of the reaction with allylic co-substrates: co-substrate at 12.5 and 25 mM, IPP and Mg^2+ at saturation
Sequence of T. canadensis GGPP synthase (Q9ZPM3 99-393): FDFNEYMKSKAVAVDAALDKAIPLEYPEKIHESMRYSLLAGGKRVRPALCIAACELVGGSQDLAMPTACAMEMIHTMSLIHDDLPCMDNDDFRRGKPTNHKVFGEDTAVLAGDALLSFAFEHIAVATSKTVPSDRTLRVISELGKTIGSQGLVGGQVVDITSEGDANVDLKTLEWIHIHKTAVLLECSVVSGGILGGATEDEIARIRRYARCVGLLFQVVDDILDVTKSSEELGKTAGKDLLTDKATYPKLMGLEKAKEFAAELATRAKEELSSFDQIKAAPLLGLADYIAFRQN
Protocol: The reaction was quenched by the addition of 300 mil of methanol:conc. HCl (4:1, v/v), and the allylic diphosphate products were solvolyzed (50, 51) upon further incubation at 42° C. for 20 min. The resulting solvolysis products were extracted twice with 1 ml pentane, and were either analyzed by liquid scintillation counting (in toluene:ethanol (7:3, v/v) containing 0.4% Omnifluor (DuPont NEN); ^14 C counting efficiency=96.0%) or concentrated on ice under a gentle stream of Ar to […] for further analysis.

[2] = system: T. canadensis suspension cell cultures; test: Methyl jasmonate induction of suspension cell cultures: paclitaxel in medium and cell mass; assay type: cell-based
Protocol: Suspension cell cultures were treated with methyl jasmonate 7 d after subculture and harvested at 8, 12, 24, 48 or 168 h after elicitation, or immediately before induction. During this 7 d induction period, the wet cell mass increased by about 10% and the paclitaxel concentration in the medium (where the majority of the taxoids accumulate) rose from 2.5 mg/l to 32 mg/I, with the greatest increase occurring after 48 h. The concentration of paclitaxel was measured by calibrated HPLC with UV detection as described in Hezari et al, Arch. Biochem. Biophys., 337:185-190 (1997).

GGPP synthase mRNA = test: RNA-blot analysis over the time course of methyl jasmonate induction; assay type: cell-based, T. canadensis; details: at 8 h; elevated through at least 48 h
Protocol: (§1) Total RNA was isolated from T. canadensis suspension cell cultures using the method set forth in Example 1. Equivalent amounts of RNA […] from cells that had been harvested 8, 12, 24, 48, and 168 h after methyl jasmonate induction, as well as RNA isolated from non-induced cells (0 h), were separated by electrophoresis on a formaldehyde-denaturing agarose gel, along with RNA size standards (Promega Corporation, Madison, Wis.). The separated RNA was blotted to nylon membrane by capillary action and then fixed by UV irradiation. Radiolabeled probes corresponding to the full length GGPP synthase coding region (nucleotide 308 to nucleotide 1489 of the nucleic acid sequence set forth in SEQ ID NO:1), and to an internal fragment (nucleotides 173 to 1875 inclusive) of the taxadiene synthase cDNA reported in Wildung, M. R. and Croteau, R. (1996) J. Biol. […] The blot was incubated sequentially with each probe for 16 h at 65° C., then washed twice with 2×SSC at room temperature, and then thrice with 0.5×SSC at 65° C. The blot was imaged using a Bio-Rad GS-525 Molecular Imager® System and Molecular Analyst version 2.1 software.

taxadiene synthase mRNA = test: as above; assay type: cell-based, T. canadensis; details: at 8 h; elevated through at least 48 h
Protocol: as §1

GGPP synthase = test: Enzyme activity in cell culture extracts after methyl jasmonate induction; assay type: cell-based, T. canadensis; details: crude extracts, 0-168 h after induction (FIG. 5)
Protocol: (§2) The same T. canadensis cell cultures used for RNA blot analysis were also used to determine the relative activities of GGPP synthase and taxadiene synthase over the course of methyl jasmonate induction of paclitaxel biosynthesis. […] Particulate material and cellular debris were removed from the homogenates by centrifugation, first at 3000 g, then at 31,000 g, for 20 min at 4° C. Protein concentration in the supernatant used as the enzyme source was estimated by the method of Bradford (Bradford, M. M. (1976) Anal. Biochem. 72:24814 254). GGPP synthase activity was determined by the standard prenyltransferase assay described in Example 4, except that 100 μl of crude extract (150 μg protein) isolated from T. canadensis cell cultures was used as the enzyme source and the reactions were incubated for 10 min. Taxadiene synthase activity was determined by measuring the Mg^2+ -dependent conversion of [1-^3 H1 ]geranylgeranyl diphosphate (15 μM) to the olefin product as described in Hezari, M., Lewis, N. G. and Croteau, R. (1995) Arch. Biochem. Biophys., 322:437-444; […]., Gibson, D. M. and Croteau, R. (1997) Arch. Biochem. Biophys., 337:185-190. In this assay, 500 μl of the crude extract (750 μg protein) was incubated at 3 1° C. for 1 h.

taxadiene synthase = test: as above; assay type: cell-based, T. canadensis; details: crude extracts, 0-168 h after induction (FIG. 5)
Protocol: as §2

GGPP synthase proteins = molecular target: T1, GGPP synthase proteins (Taxus canadensis, UniProt Q9ZPM3); test: Physical properties of GGPP synthase proteins isolated from various Taxus species (Table 1); assay type: biochemical, T. canadensis; T. brevifolia; T. cuspidata and T. baccata
T1 construct: values reportedly equal those of recombinant truncated (mature) T. canadensis enzyme
T1 sequence (Q9ZPM3 99-393): as above

[Mn+2] [Mn^2+]
support of catalysis as divalent metal ion cofactor [1]: did not support catalysis

CC(C)=CCC/C(C)=C/COP(=O)(O)OP(=O)(O)O [GPP, geranyl diphosphate]
relative velocities of the reaction with allylic co-substrates [1]: 100%

CC/C=C\CC1C(=O)CCC1CC(=O)OC (centres unmarked) [methyl jasmonate]
paclitaxel concentration in the medium ([2]; after 7 d induction period, rose from 2.5 mg/l): 32 mg/I | increase of wet cell mass ([2]; during 7 d induction period): about 10% | steady state mRNA level of GGPP synthase (GGPP synthase mRNA): rapid increase | steady state mRNA level of taxadiene synthase (taxadiene synthase mRNA): rapid increase | GGPP synthase activity level (GGPP synthase): rose steadily to 48 h | taxadiene synthase activity level (taxadiene synthase): rose steadily to 48 h

CC(C)=CCC/C(C)=C/CC/C(C)=C/CO[P@@](=O)(O)OP(=O)(O)O (stereo in doubt) [FPP, farnesyl diphosphate]
relative velocities of the reaction with allylic co-substrates [1]: 66%

[Mg+2] [Mg^2+]
Km ([1]; double reciprocal plotting, remaining reactants at saturation): 35 µM | Km (GGPP synthase proteins): 35 ± 3 µM
